Test results reported in patent publication US20190270733A1, “Quinoline and Isoquinoline Based HDAC Inhibitors and Methods of Use Thereof” (Reaction Biology Corp., priority 2018, published 2019).
Where “and” joins values, the source holds several entries; their conditions need not be identical. Equal values may be shown once. Read-outs that look alike come from different tables or passages of the source.

Key:
[1] = Brain exposure experiment in mice; format: in vivo; settings: 1 hour after exposure
Protocol: Brain exposure experiments were performed wherein mice were exposed to compound Example 5 at an IV dosage of 1 mg/kg (Table 4).

Human HDAC2 = target: T1, Human HDAC2 (Homo sapiens, UniProt Q92769); experiment: Biochemical HDAC assay, HDAC2; settings: incubation time 120 min
T1 construct: full-length with a C-terminal His-tag; His-tag (C); made in house
T1 sequence (Q92769 whole entry): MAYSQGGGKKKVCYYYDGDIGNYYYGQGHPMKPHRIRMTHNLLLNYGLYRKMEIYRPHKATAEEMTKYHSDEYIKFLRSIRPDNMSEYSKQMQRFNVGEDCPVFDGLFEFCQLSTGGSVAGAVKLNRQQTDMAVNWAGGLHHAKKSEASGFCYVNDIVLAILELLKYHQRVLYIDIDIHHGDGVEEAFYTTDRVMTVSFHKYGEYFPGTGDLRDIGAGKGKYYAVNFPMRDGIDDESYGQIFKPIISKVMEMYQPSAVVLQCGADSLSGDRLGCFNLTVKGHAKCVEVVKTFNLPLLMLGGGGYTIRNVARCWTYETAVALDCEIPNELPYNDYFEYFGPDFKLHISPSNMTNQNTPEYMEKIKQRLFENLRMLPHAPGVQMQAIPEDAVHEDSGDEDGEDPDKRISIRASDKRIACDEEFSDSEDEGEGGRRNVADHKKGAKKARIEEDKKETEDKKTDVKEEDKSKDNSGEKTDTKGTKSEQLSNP
Protocol: Human HDAC2 (GenBank Accession No. NM_001527), full-length with a C-terminal His-tag, MW=56 kDa, was expressed in a baculovirus expression system.
(§1) • I. Compound handling: Testing compounds were dissolved in 100% DMSO to a specific concentration. The serial dilution was conducted by epMotion 5070 in DMSO. • II. HDAC reaction buffer: 50 mM Tris-HCl, pH8.0, 137 mM NaCl, 2.7 mM KCl, and 1 mM MgCl2, Added fresh: 1 mg/ml BSA, 1% DMSO. • III. Substrate: Fluorogenic HDAC General Substrate for HDAC1, 2, 3, 6, 10, 11 ans Sirt1, 2 and 3: Arg-His-Lys-Lys(Ac); HDAC8 only substrate: Arg-His-Lys(Ac)-Lys(Ac); Class2A Substrate (HDAC4, 5, 7 and 9): Acetyl-Lys(trifluoroacetyl)-AMC; Sirt5 substrate: Ac-Lys(succinyl)-AMC. • IV. General Reaction Procedure: (Standard IC50 determination) • a. Delivered 2× enzyme in wells of reaction plate except No Enzyme (No En) control wells. Add buffer in No En wells. • b. Delivered compounds in 100% DMSO into the enzyme mixture by Acoustic technology (Echo550; nanoliter range). Spin down and pre-incubation. • c. Delivered 2× Substrate Mixture (Fluorogenic HDAC Substrate and co-factor (500 μM of Nicotinamide adenine dinucleotide (NAD^+) in all Sirt assay) in all reaction wells to initiate the reaction. Spin and shake. • d. Incubated for 1-2 hr. at 30° C. with seal. • e. Added Developer with Trichostatin A (or TMP269 or NAD^+) to stop the reaction and to generate fluorescent color. • f. Fluorescence was read (excitatory, 360; emission, 460) using the EnVision Multilabel Plate Reader (Perkin Elmer) • g. Endpoint reading was taken for analysis after the development reaches plateau. • V. Data Analysis: The percentages of enzyme activity (relative to DMSO controls) and IC50 values were calculated using the GraphPad Prism 4 program based on a sigmoidal dose-response equation.
(§2) Compounds with indicated doses was tested in the biochemical assays of HDAC1, HDAC2, HDAC3, HDAC4, HDAC5, HDAC6, HDAC7, HDAC8, HDAC9, HDAC10, or HDAC11 enzyme. The incubation time in HDAC1/2 assays are 120 min, and that for other HDACs are 10 min. The curve fit and IC50 values were calculated using the GraphPad Prism 4 program based on a sigmoidal dose-response equation.

Human HDAC8 = target: T2, Human HDAC8 (Homo sapiens, UniProt Q9BY41); experiment: Biochemical HDAC assay, HDAC8; settings: incubation time 10 min
T2 construct: full-length with a C-terminal His tag; His tag (C); made in house
T2 sequence (Q9BY41 1-377): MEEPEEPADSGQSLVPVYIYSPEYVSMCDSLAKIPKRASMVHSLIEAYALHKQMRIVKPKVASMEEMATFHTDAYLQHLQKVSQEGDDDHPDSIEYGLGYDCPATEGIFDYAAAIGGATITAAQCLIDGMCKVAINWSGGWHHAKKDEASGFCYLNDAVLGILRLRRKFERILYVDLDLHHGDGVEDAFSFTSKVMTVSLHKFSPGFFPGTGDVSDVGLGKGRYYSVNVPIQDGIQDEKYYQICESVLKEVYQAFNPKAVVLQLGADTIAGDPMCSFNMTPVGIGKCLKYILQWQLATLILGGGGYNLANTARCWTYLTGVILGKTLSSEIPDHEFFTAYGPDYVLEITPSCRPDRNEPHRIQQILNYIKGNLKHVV
Protocol: Human HDAC8 (GenBank Accession No. NM_018486), full-length with a C-terminal His tag, MW=46.4 kDa, was expressed in a baculovirus expression system.
as §1, §2

[2] = IV 1 mg/kg, individual mice, 1 mg/kg

For Nc1ccc(-c2cccs2)cc1NC(=O)c1ccc2c(c1)CCC(=O)N2 [Example 5, N-(2-amino-5-(thiophen-2-yl)phenyl)-2-oxo-1,2,3,4-tetrahydroquinoline-6-carboxamide], the “brain penetration (in words)” value ([1]; IV 1 mg/kg) was “no brain penetration”, the Brain concentration [1, 2] was 0 ng/mL and the Plasma concentration [1, 2] was 206 ng/mL and 0.57 μM and 270 ng/mL and 0.74 μM. For the same compound, the concentration at 1 h ([1]; IV 1 mg/kg, individual mice, 1 mg/kg, read-out: Brain concentration) was 0.00 µM, the concentration at 1 h ([1]; mouse, brain, iv, 1 mg/kg, average, read-out: Brain concentration) was 0 ng/mL and 0 nM and the concentration at 1 h ([1]; mouse, brain, iv, 1 mg/kg, individual mice, read-out: Brain concentration) was 0 ng/mL and 0 nM. The concentration at 1 h ([1]; mouse, plasma, iv, 1 mg/kg, average, read-out: Plasma concentration) was 267 ng/mL and 730 nM, the concentration at 1 h ([1]; mouse, plasma, iv, 1 mg/kg, individual mice, read-out: Plasma concentration) was 324 ng/mL and 890 nM and the IC50 (Human HDAC2) was 34 nM. It also gave an IC50 (Human HDAC8) greater than 10000 nM.
